# From article PMC9762331 (Cancer Discovery, 2021)
# Entries after “also recorded” stand apart in the source; their conditions may differ.
# Legend:
# [1] = tested on: primary human hepatocytes; assay: Cytotoxicity in primary human hepatocytes; assay type: cell-based; details: tested up to 100 μmol/L
# [2] = tested on: SW48 isogenic PIK3CA-mutant and parental WT cells; assay: Potency comparison in SW48 isogenic mutant versus WT cells; assay type: cell-based, human; details: for potency differential in mutant versus WT isogenic SW48 cells: viability EC50, mutant versus WT
# [3] = tested on: PIK3CA E545K-mutant MCF7 cells; assay: CyQuant growth rate inhibition; assay type: cell-based; details: all combination treatments (± E2, ± 0.15 μmol/L palbociclib)
# [4] = tested on: HER2-positive PIK3CA-mutant breast tumor lines (n = 6); assay: ATP cell viability, HER2-positive PIK3CA-mutant breast lines; assay type: cell-based; details: HER2 amplified PIK3CA-mutant cell lines, 5 days
# [5] = letrozole ± palbociclib portion of the study; cited from earlier work
# [6] = tested on: HCC1954, KPL-4, and HCI-003 PDX; assay: Efficacy in PIK3CA-mutant xenograft and PDX models; assay type: in vivo, mouse; details: HCC1954, KPL-4, HCI-003 PDX; dosed orally and daily
# [7] = tested on: pAKT in HER2-amplified PIK3CA-mutant cells (HCC1954, HCC202, MDA-MB-453); assay: pAKT Western blot time course; assay type: cell-based; details: 0.5 μmol/L GDC-0077 or 1 μmol/L BYL719
# [8] = tested on: p110a in PIK3CA-mutant breast cancer lines; details: treatment for 24 hours
# [9] = tested on: HER2-negative PIK3CA-mutant breast tumor lines (n = 10); assay: ATP cell viability, HER2-negative PIK3CA-mutant breast lines; assay type: cell-based; details: 5 days
# [10] = biological target: H1047R mutant p110a in HCC1954 parental cells (Homo sapiens, UniProt P42336, H1047R); details: 24 hours, 500 nmol/L, P = 0.00016
# Chain of H1047R mutant p110a in HCC1954 parental cells (P42336 whole entry H1047R): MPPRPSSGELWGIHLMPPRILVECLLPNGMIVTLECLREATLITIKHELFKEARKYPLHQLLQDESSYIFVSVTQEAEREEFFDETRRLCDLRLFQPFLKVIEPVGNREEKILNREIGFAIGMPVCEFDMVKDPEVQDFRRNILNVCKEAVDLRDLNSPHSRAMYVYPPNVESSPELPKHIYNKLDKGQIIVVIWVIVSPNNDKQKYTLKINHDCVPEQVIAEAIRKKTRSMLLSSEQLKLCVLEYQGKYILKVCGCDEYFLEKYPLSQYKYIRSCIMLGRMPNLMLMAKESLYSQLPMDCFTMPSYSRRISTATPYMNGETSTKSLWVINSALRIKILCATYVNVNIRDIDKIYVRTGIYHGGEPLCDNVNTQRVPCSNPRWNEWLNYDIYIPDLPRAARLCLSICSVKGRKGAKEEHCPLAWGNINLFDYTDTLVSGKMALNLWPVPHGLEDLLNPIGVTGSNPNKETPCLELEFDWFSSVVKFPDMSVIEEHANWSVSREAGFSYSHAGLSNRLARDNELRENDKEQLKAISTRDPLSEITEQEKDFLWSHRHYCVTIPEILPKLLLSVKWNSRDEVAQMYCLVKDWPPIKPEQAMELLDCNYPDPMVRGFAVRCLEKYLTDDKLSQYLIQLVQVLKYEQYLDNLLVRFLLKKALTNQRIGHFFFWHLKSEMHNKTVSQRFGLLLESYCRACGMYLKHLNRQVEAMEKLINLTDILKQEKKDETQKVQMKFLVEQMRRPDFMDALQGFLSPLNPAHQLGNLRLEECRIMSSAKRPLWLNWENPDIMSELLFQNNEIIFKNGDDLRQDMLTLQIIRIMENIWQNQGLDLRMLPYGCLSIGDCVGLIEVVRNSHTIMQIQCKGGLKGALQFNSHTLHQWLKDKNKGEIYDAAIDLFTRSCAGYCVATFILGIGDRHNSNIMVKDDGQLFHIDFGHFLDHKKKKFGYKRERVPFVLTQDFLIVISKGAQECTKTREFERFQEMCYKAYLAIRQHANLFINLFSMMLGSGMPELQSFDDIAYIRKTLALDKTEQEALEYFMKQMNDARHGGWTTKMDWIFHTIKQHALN
# Chain of H1047R mutant p110a in HCC1954 parental cells (O00459 whole entry partner): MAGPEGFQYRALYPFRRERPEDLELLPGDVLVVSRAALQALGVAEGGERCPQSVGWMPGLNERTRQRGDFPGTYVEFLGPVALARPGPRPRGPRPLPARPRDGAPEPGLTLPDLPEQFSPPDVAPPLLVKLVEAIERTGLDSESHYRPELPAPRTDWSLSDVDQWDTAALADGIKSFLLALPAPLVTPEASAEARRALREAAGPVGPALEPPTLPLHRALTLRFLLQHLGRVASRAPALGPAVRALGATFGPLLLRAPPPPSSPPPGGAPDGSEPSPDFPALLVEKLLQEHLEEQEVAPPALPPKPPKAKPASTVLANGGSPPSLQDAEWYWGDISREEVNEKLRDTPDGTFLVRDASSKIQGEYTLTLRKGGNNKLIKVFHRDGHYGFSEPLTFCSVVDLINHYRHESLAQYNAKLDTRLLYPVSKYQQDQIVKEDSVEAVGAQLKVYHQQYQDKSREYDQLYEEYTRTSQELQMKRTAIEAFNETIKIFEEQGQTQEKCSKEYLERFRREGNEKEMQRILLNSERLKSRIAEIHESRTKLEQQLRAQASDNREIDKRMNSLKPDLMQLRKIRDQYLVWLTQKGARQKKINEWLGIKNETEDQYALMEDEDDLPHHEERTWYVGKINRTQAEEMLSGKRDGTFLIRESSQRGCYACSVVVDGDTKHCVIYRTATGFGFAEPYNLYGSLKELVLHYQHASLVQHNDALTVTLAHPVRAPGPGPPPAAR
# [11] = biological target: membrane-associated p110a in p110a-mutant HCC1954 xenograft model (Homo sapiens, UniProt P42336, H1047R); assay: Membrane-associated p110a in HCC1954 xenograft tumors; assay type: in vivo, mouse
# Chain of membrane-associated p110a in p110a-mutant HCC1954 xenograft model (P42336 whole entry H1047R): as the sequence (P42336 whole entry H1047R) above
# [12] = biological target: p110a protein in PIK3CA H1047R-mutant HCC1954 cells (Homo sapiens, UniProt P42336, H1047R); assay: p110a Western blot, HCC1954 cells; assay type: cell-based; details: treatment up to 8 hours
# Chain of p110a protein in PIK3CA H1047R-mutant HCC1954 cells (P42336 whole entry H1047R): as above
# [13] = biological target: p110a in PIK3CA-WT HDQ-P1 cells (Homo sapiens, UniProt P42336); details: Western blot, 8 hours
# Chain of p110a in PIK3CA-WT HDQ-P1 cells (P42336 whole entry): as the sequence (P42336 whole entry H1047R) above, with R1047H counted along it
# Chain of p110a in PIK3CA-WT HDQ-P1 cells (P27986 whole entry partner): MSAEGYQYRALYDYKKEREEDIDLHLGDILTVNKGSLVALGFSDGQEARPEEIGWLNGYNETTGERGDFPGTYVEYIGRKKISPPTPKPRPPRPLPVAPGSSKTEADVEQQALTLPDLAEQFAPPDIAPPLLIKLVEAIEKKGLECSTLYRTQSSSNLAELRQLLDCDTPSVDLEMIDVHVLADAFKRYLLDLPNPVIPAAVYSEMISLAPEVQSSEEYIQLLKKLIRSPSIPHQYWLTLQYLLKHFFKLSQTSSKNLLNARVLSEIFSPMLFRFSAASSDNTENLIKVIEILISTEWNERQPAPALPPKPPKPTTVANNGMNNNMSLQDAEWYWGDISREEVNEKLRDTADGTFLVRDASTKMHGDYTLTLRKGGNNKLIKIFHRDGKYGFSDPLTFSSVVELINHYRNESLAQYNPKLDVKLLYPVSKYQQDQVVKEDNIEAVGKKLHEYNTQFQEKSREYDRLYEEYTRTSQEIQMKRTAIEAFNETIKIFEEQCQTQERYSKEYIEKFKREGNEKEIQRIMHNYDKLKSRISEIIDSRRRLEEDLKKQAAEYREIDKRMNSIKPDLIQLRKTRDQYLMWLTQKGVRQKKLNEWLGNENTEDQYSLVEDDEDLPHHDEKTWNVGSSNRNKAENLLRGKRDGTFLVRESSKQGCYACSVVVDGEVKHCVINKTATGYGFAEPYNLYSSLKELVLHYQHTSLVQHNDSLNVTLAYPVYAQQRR
smiles,measurement,setting,value
"Cc1nc(NC(=O)N2CCC[C@H]2C(N)=O)sc1-c1ccnc(C(C)(C)C(F)(F)F)c1 [Alpelisib, reference compound]",cytotoxic effects in primary human hepatocytes,[1],no cytotoxic effects
same,potency differential in mutant versus WT isogenic SW48 cells,[2],not have a potency differential
C[C@H](Nc1ccc2c(c1)OCCn1cc(N3C(=O)OC[C@H]3C(F)F)nc1-2)C(N)=O [GDC-0077],GDC-0077 concentrations giving negative GR values (cytotoxic response),[3],≥ 0.12 µmol/L
same,"fold difference between the mean IC50 values, GDC-0077 versus BYL719",[4],~20 fold
same,drug–drug interactions,[5],No drug–drug interactions were observed
same,tumor response at the MTD in PIK3CA-mutant xenograft and PDX models,[6],tumor regressions
same,pAKT / pathway inhibition over the 24-hour treatment time,[7],sustained inhibition of pAKT; also recorded: sustained pathway inhibition
same,p110a degradation at clinically relevant concentrations,[8],resulted in p110a degradation
same,"fold difference between the mean IC50 values, GDC-0077 versus BYL719",[9],~6 fold
same,cytotoxic effects in primary human hepatocytes,[1],no cytotoxic effects
same,mutant-specific (H1047R) p110a peptide by mass spectrometry,[10],loss of the mutant-specific peptide
same,p110a protein expression in HCC1954 xenograft tumors,[11]; single oral dose of 50 mg/kg,depleted p110a protein expression for up to 8 hours
"CC(C)n1ncnc1-c1cn2c(n1)-c1ccc(O[C@@H](C)C(N)=O)cc1OCC2 [GNE-326, (S)-2-((2-(1-Isopropyl-1H-1,2,4-triazol-5-yl)-5,6-dihydrobenzo[f]imidazo[1,2-d][1,4]oxazepin-9-yl)oxy)propanamide]",potency differential in mutant versus WT isogenic SW48 cells,[2],not have a potency differential
"CS(=O)(=O)N1CCN(Cc2cc3nc(-c4cccc5[nH]ncc45)nc(N4CCOCC4)c3s2)CC1 [Pictilisib, 2-(1H-indazol-4-yl)-6-(4-methanesulfonyl-piperazin-1-ylmethyl)-4-morpholin-4-yl-thieno[3,2-d]pyrimidine]",potency differential in mutant versus WT isogenic SW48 cells,[2],comparable EC50
Cc1nc(-c2cn3c(n2)-c2ccc(-c4cnn(C(C)(C)C(N)=O)c4)cc2OCC3)n(C(C)C)n1 [Taselisib],p110a protein level in HCC1954 cells,[12],dose-dependent depletion of p110a protein
same,p110a degradation at clinically relevant concentrations,[8],resulted in p110a degradation
same,cytotoxic effects in primary human hepatocytes,[1],no cytotoxic effects
same,p110a protein level in HDQ-P1 cells,[13],No significant change
same,mutant-specific (H1047R) p110a peptide by mass spectrometry,[10],loss of the mutant-specific peptide
same,potency (EC50) increase in PIK3CA-mutant cells versus parental WT SW48 cells,[2]; H1047R or E545K knock-in versus parental,3 fold
same,membrane-associated p110a in HCC1954 xenograft tumors,[11]; 4 hours after a single oral dose of 15 mg/kg,depleted
